In publication PMC10060354, “Discovery of a small molecule ligand of FRS2 that inhibits invasion and tumor growth” (Cellular Oncology, 2022):
Like-named read-outs stand apart in the source and are kept apart here.

Tests used:
[1] = target: T1, GB1-FRS2-PTB (Homo sapiens, UniProt Q8WU20); assay: NMR STD and WaterLOGSY ligand observation; format: binding; settings: 25 µM GB1-FRS2-PTB, 500 µM ligand, 280 K
T1 construct: FRS2-PTB 11-140aa; 6xHis (N); made in house; host or cells: E. coli BL21 (DE3)
T1 sequence (Q8WU20 11-140): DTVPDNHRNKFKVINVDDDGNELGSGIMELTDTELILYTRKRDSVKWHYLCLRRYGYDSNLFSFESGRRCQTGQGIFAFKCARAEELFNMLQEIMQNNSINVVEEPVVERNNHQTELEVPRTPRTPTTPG
Procedure: STD and WaterLOGSY experiments were measured at 7 °C on a Bruker AvNEO 600 spectrometer equipped with a TCI cryoprobe. In the STD experiments saturation was achieved by applying a series of Gaussian-shaped pulses at a RF field strength of 54 Hz (max.) for 3 s at -0.5 ppm (-40 ppm for the reference experiment) and 512 scans were accumulated. The WaterLOGSY was measured with 256 scans and a mixing time of 1.5 s. A 7.5 ms Gaussian-shaped 180° pulse was used to control the water magnetization. For both experiments samples of 25 µM GB1-FRS2_PTB with a 20-fold excess of ligand (500 µM) were used or with the ligand alone for the control experiment.

[2] = test system: FRS2 (Y436) phosphorylation; assay: Immunoblotting, FRS2 phosphorylation; format: cell-based, human; settings: DAOY or SW780 cells; 10 µM compound
Procedure: (§1) Cells were serum starved o.n. and 10 µM compound or 1 µM (BGJ398) were added 3 h before stimulation with 100 ng/ml bFGF for 15 min. Cells were lysed in RIPA buffer containing protease inhibitor cocktail and lysates resolved by SDS-PAGE. Membranes were probed with primary antibodies against phospho-FRS2, FRS2, phospho-ERK1/2, ERK1/2, pAKT, AKT and tubulin. Integrated density of immuno-reactive bands was quantified using Adobe Photoshop CS3. Integrated densities of phospho bands relative to non-phospho bands of same protein were calculated and plotted as fold-change relative to untreated control conditions. Compounds and BGJ398 were added in DMSO and corresponding DMSO concentrations were used in control samples.

[3] = In vivo bioavailability / PK after 1 mg/kg IV or 10 mg/kg PO; set-up: species or system Male ICR mice; settings: for AUC(0-t): iv
Procedure: In vivo bioavailability studies were performed by Pharmacology Discovery Services Taiwan, Ltd., (New Taipei City, Taiwan). Male ICR mice weighing 20—30 g were provided by BioLasco Taiwan (under Charles River Laboratories Licensee). Animals were acclimated for 3 days prior to use and were confirmed with good health. All animals were maintained in a hygienic environment with controlled temperature (20—24 °C), humidity (30%—70%) and 12 h light/dark cycles. Free access to sterilized standard lab diet [MFG (Oriental Yeast Co., Ltd., Japan)] and autoclaved tap water. A pharmacokinetic (PK) study was performed in male ICR mice following intravenous (IV) and oral (PO) administration of compound 7 and E12 and IV administration of the test compound 3.14. The three test compounds (7, E12 and 3.14) were formulated in 1% dimethyl sulfoxide (DMSO)/10% Solutol® HS-15/ phosphate buffered saline (PBS) at 0.2 mg/mL and 1 mg/mL for IV and PO administration, respectively. The dosing volumes were 5 ml/kg for IV and 10 ml/kg for PO. The dose was 1 mg/kg for IV and 10 mg/kg for PO routes.

[4] = test system: ERK (pT202/Y204); assay: Immunoblotting, ERK phosphorylation; format: cell-based, human; settings: SW780 and AGS cells; 10 µM
Procedure: as §1

[5] = male, ICR, mouse, plasma, 1 mg/kg, IV

binding to the PTB domain by STD and WaterLOGSY (result in words) [1]	AUC Extr (%) ([3]; 1 mg/kg, IV)	AUC(0-t) ([3]; male, ICR, mouse, plasma, 1 mg/kg, IV, read-out: AUClast)	AUC(0-t) ([3]; male, ICR, mouse, plasma, 1 mg/kg, mice, 1 mg/kg IV, read-out: AUClast after IV administration)	AUC(0-inf) [3, 5]	MRT [3, 5]	clearance [3, 5]	half-life [3, 5]	Vd ([3]; male, ICR, mouse, plasma, 1 mg/kg, IV, read-out: Vss)	C0 ([3]; male, ICR, mouse, mice, 1 mg/kg IV, plasma, read-out: C0 after IV administration)	CL1/2 after IV administration ([3]; mice, 1 mg/kg IV)	Structure (SMILES)	basal or bFGF-induced Y436 phosphorylation of FRS2 (result in words) [2]	pERK (result in words) [4]
clearly demonstrated binding	0.5%	410 ng·h/mL	413 ng·h/mL	413 ng·h/mL	0.52 h	40 mL/min/kg	1.55 h	1.3 L/kg	2700 ng/mL	1.55 h	CC(C)C[C@@H](CO)NCc1cc(O)c2cc(F)ccc2n1 [Compound 3.14]	not effective in SW780 cells	significantly reduced pERK
clearly demonstrated binding											O=C(O)c1c(Cl)cc(O)c2c1C1C=CCC1C(c1ccc(Cl)cc1)N2 (centres unmarked) [Compound 13]		
